According to patent publication US9593122B2, “Substituted pyrazolylpyrazole derivative and use of same as herbicide” (KYOYU AGRI CO., LTD., priority 2013, dated 2017):

What was measured:
Assay type in all cases: in vivo
Rice plants = assay: Paddy herbicidal activity test, phytotoxicity to transplanted rice; settings: rice transplanted at 2.0 leaf stage, 30 days
Protocol: Rice paddy soil was filled into a 1/10000 are pot followed by the addition of suitable amounts of water and chemical fertilizer, kneading, seeding with Echinochloa crus-galli, Monochoria vaginalis and Scirpus juncoides and maintaining in an irrigated state at a water depth of 3 cm.
Wettable powder of Target Compound (I) shown in Table 1 prepared in compliance with the preparation examples were diluted with a suitable amount of water, rice plants in the 2.0 leaf stage were transplanted during 3.5 leaf stage of Echinochloa crus-galli, and treated by dropping in chemical in the prescribed amount per are using a pipette.
(§1) After treating for 30 days in a glass greenhouse at an average atmospheric temperature of 30° C., the herbicidal efficacy thereof was investigated.
Evaluation of herbicidal efficacy was carried out by comparing growth inhibition rate (%) with an untreated group, while evaluation of phytotoxicity was carried out by comparing growth inhibition rate (%) with the state of a complete eradication group, and were evaluated at 11 levels indicated below.

Scirpus juncoides = assay: Paddy herbicidal activity test; settings: irrigated paddy pot, 30 days
How it was run: (§2)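 Flooded paddy-soil pots (3 cm water) were sown with Echinochloa, Monochoria and Scirpus, and rice at the 2.0-leaf stage was transplanted. Diluted wettable powder was dripped in per are at weed 3.5-leaf stage. After 30 days in a greenhouse (~30 °C), growth inhibition versus untreated plants was scored on an 11-level scale.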

Monochoria vaginalis = assay: Paddy herbicidal activity test; settings: irrigated paddy pot, 30 days
How it was run: as §2

Echinochloa crus-galli = assay: Paddy herbicidal activity test; settings: irrigated paddy pot, treated at 3.5 leaf stage of Echinochloa crus-galli, 30 days
How it was run: as §2

Chenopodium album [1] = assay: Weed foliar treatment test; settings: foliar spray, 3 weeks
Protocol: (§3) Soil was filled into a 1/6000 are pot followed by seeding with Digitaria ciliaris, Chenopodium album and Amaranthus retroflexus, covering with soil, and cultivating in a glass greenhouse at an average atmospheric temperature of 25° C.
(§4) Wettable powder of Target Compound (I) shown in Table 1 prepared in compliance with the preparation examples were diluted with water to the prescribed amount of chemical and uniformly sprayed onto the weeds using 15 liters of sprayed water per are when Digitaria ciliaris had grown to the 1.0 to 2.0 leaf stage.
(§5) After treating for 3 weeks in a glass greenhouse at an average atmospheric temperature of 25° C., the herbicidal efficacy thereof was investigated.
(§6) Evaluation of herbicidal efficacy was carried out in the same manner as the above-mentioned Test Example 1.

Amaranthus retroflexus [2] = assay: Weed foliar treatment test; settings: foliar spray, 3 weeks
Protocol: as §3, §4, §5, §6

Digitaria ciliaris [3] = assay: Weed foliar treatment test; settings: foliar spray at 1.0 to 2.0 leaf stage of Digitaria ciliaris, 3 weeks
Protocol: as §3, §4, §5, §6

Chenopodium album [4] = assay: Farming soil treatment test; settings: soil surface spray prior to weed growth, 30 days
Protocol: (§7) Field soil was filled into a 1/6000 are pot followed by seeding with Digitaria ciliaris, Chenopodium album and Amaranthus retroflexus and covering with soil.
(§8) Wettable powder of compounds of formula (I) shown in Table 1 prepared in compliance with the preparation examples were diluted with water to the prescribed amount of chemical and uniformly sprayed onto each soil surface layer using 10 liters of sprayed water per are prior to weed growth following seeding.
as §1
(§9) Evaluation of herbicidal efficacy is carried out in the same manner as the above-mentioned Test Example 1.

Amaranthus retroflexus [5] = assay: Farming soil treatment test; settings: soil surface spray prior to weed growth, 30 days
Protocol: as §7, §8, §1, §9

Digitaria ciliaris [6] = assay: Farming soil treatment test; settings: soil surface spray prior to weed growth, 30 days
Protocol: as §7, §8, §1, §9

C=C(Cl)CN(C(=O)C(F)(F)F)c1c(C#N)cnn1-c1nn2c(c1Cl)CCCC2 [Compound 3, (N-1-(3-chloro-4,5,6,7-tetrahydropyrazolo[1,5-a]pyridin-2-yl)-4-cyanopyrazol-5-yl)-N-(2-chloroprop-2-enyl)-2,2,2-trifluoroacetamide]
Rice plants phytotoxicity (growth inhibition level) (Rice plants; 1g a.i./10a): 0 (0 (exponent): 0% to less than 10% (growth inhibition rate)) | Rice plants phytotoxicity (growth inhibition level) (Rice plants; 5g a.i./10a): 0 (0 (exponent): 0% to less than 10% (growth inhibition rate)) | Scirpus juncoides herbicidal efficacy (growth inhibition level) (Scirpus juncoides; 1g a.i./10a): 7 (7: 70% to less than 80%) | Scirpus juncoides herbicidal efficacy (growth inhibition level) (Scirpus juncoides; 5g a.i./10a): 8 (8: 80% to less than 90%) | Monochoria vaginalis herbicidal efficacy (growth inhibition level) (Monochoria vaginalis; 1g a.i./10a): 9 (9: 90% to less than 100%) | Monochoria vaginalis herbicidal efficacy (growth inhibition level) (Monochoria vaginalis; 5g a.i./10a): 9 (9: 90% to less than 100%) | Echinochloa crus-galli herbicidal efficacy (growth inhibition level) (Echinochloa crus-galli; 1g a.i./10a): 9 (9: 90% to less than 100%) | Echinochloa crus-galli herbicidal efficacy (growth inhibition level) (Echinochloa crus-galli; 5g a.i./10a): 10 (10: 100%) | Chenopodium album herbicidal efficacy (growth inhibition level) (Chenopodium album [1]; 5g a.i./10a): 10 (10: 100%) | Chenopodium album herbicidal efficacy (growth inhibition level) (Chenopodium album [1]; 10g a.i./10a): 10 (10: 100%) | Amaranthus retroflexus herbicidal efficacy (growth inhibition level) (Amaranthus retroflexus [2]; 5g a.i./10a): 10 (10: 100%) | Amaranthus retroflexus herbicidal efficacy (growth inhibition level) (Amaranthus retroflexus [2]; 10g a.i./10a): 10 (10: 100%) | Digitaria ciliaris herbicidal efficacy (growth inhibition level) (Digitaria ciliaris [3]; 5g a.i./10a): 10 (10: 100%) | Digitaria ciliaris herbicidal efficacy (growth inhibition level) (Digitaria ciliaris [3]; 10g a.i./10a): 10 (10: 100%) | Chenopodium album herbicidal efficacy (growth inhibition level) (Chenopodium album [4]; 5g a.i./10a): 10 (10: 100%) | Chenopodium album herbicidal efficacy (growth inhibition level) (Chenopodium album [4]; 10g a.i./10a): 10 (10: 100%) | Amaranthus retroflexus herbicidal efficacy (growth inhibition level) (Amaranthus retroflexus [5]; 5g a.i./10a): 10 (10: 100%) | Amaranthus retroflexus herbicidal efficacy (growth inhibition level) (Amaranthus retroflexus [5]; 10g a.i./10a): 10 (10: 100%) | Digitaria ciliaris herbicidal efficacy (growth inhibition level) (Digitaria ciliaris [6]; 5g a.i./10a): 10 (10: 100%) | Digitaria ciliaris herbicidal efficacy (growth inhibition level) (Digitaria ciliaris [6]; 10g a.i./10a): 10 (10: 100%)

C=C(Cl)CNc1c([N+](=O)[O-])cnn1-c1nn2c(c1Cl)CCCC2 [Compound 30]
Scirpus juncoides herbicidal efficacy (growth inhibition level) (Scirpus juncoides; 1g a.i./10a): 8 (8: 80% to less than 90%) | Scirpus juncoides herbicidal efficacy (growth inhibition level) (Scirpus juncoides; 5g a.i./10a): 10 (10: 100%) | Monochoria vaginalis herbicidal efficacy (growth inhibition level) (Monochoria vaginalis; 1g a.i./10a): 9 (9: 90% to less than 100%) | Monochoria vaginalis herbicidal efficacy (growth inhibition level) (Monochoria vaginalis; 5g a.i./10a): 10 (10: 100%) | Echinochloa crus-galli herbicidal efficacy (growth inhibition level) (Echinochloa crus-galli; 1g a.i./10a): 9 (9: 90% to less than 100%) | Echinochloa crus-galli herbicidal efficacy (growth inhibition level) (Echinochloa crus-galli; 5g a.i./10a): 10 (10: 100%) | Chenopodium album herbicidal efficacy (growth inhibition level) (Chenopodium album [1]; 5g a.i./10a): 10 (10: 100%) | Chenopodium album herbicidal efficacy (growth inhibition level) (Chenopodium album [1]; 10g a.i./10a): 10 (10: 100%) | Amaranthus retroflexus herbicidal efficacy (growth inhibition level) (Amaranthus retroflexus [2]; 5g a.i./10a): 10 (10: 100%) | Amaranthus retroflexus herbicidal efficacy (growth inhibition level) (Amaranthus retroflexus [2]; 10g a.i./10a): 10 (10: 100%) | Digitaria ciliaris herbicidal efficacy (growth inhibition level) (Digitaria ciliaris [3]; 5g a.i./10a): 10 (10: 100%) | Digitaria ciliaris herbicidal efficacy (growth inhibition level) (Digitaria ciliaris [3]; 10g a.i./10a): 10 (10: 100%) | Chenopodium album herbicidal efficacy (growth inhibition level) (Chenopodium album [4]; 5g a.i./10a): 10 (10: 100%) | Chenopodium album herbicidal efficacy (growth inhibition level) (Chenopodium album [4]; 10g a.i./10a): 10 (10: 100%) | Amaranthus retroflexus herbicidal efficacy (growth inhibition level) (Amaranthus retroflexus [5]; 5g a.i./10a): 10 (10: 100%) | Amaranthus retroflexus herbicidal efficacy (growth inhibition level) (Amaranthus retroflexus [5]; 10g a.i./10a): 10 (10: 100%) | Digitaria ciliaris herbicidal efficacy (growth inhibition level) (Digitaria ciliaris [6]; 5g a.i./10a): 10 (10: 100%) | Digitaria ciliaris herbicidal efficacy (growth inhibition level) (Digitaria ciliaris [6]; 10g a.i./10a): 10 (10: 100%)
